Assay results taken from US12329828B2, “Pyrimidine nucleoside compounds for fluorescence imaging and spectroscopy” (San Diego State University Foundation, priority 2020, dated 2025).
Several values for one entry are separate records, joined by “and”; a condition that tells them apart may be missing. Equal entries are not always repeated. Marks after values point to notes of the source that are not given here.

Columns and labels:
Assay type in all cases: physicochemical
[1] = Steady-state absorption and fluorescence of the ABN nucleoside in solvents
Description: Photophysical properties. Steady-state measurements. […] Owing to the conjugated push-pull system in the design of ABN, the absorption and emission wavelengths are the longest known for a FBA designed to be capable of Watson-Crick hydrogen bonding. Recorded emission spectra in water using excitation wavelengths ranging from 310-500 nm are nearly superposable, as are excitation spectra recorded for emission wavelengths spanning 500-650 nm. These observations support the predominance of a single tautomeric form in dilute, aqueous solution.
(§1) Quantum yields measurements. Experiments were measured in a quartz sub-micro cuvette (10 mm path length) purchased from Starnacell Inc. Steady state emission scans were recorded using a PTI QuantaMaster QM-400 and absorbances were measured on a Shimadzu UV-1700 Pharmaspec spectrometer. Quantum yield measurements were performed the comparative method of Williams et. al. and measured in duplicate, at minimum. Coumarin 153 in ethanol was used as a reference standard for all photophysical measurements. All measurements were taken with an absorbance range of 0.01-0.1. Subsequent dilutions were performed stepwise in order to obtain a minimum of six absorbance and emission spectra for quantum yield determinations.

[2] = Steady-state photophysical measurements of ABN in single-stranded and duplex DNA oligonucleotides
Description: Next, we measured the fluorescence of ABN in single-stranded and duplex DNA oligonucleotides to determine how base pairing and stacking influence its photophysical properties (Table 2). ABN increases its fluorescence to Φem=0.50-0.53 in matched duplex DNA oligonucleotides when base paired with A and Φem=0.55 when the analogue is present in the hairpin loop of ODN1. The quantum yield is less, 0.40 and 0.29, in ODN1:ODN3 and ODN4:ODN6 respectively, in which ABN is base paired with G. In ODN7:ODN9 Φem,=0.55, slightly greater than when base paired with A. In all of these single-stranded and duplex sequences, ABN is brighter than any other known FBA when present in oligonucleotides.
as §1

[3] = Two-photon single-molecule characterization (fluorescence correlation spectroscopy)
Description: Single-molecule fluorescence measurements. Given the very attractive bulk-level photophysical properties of ABN in solution, we next investigated its potential as a single-molecule probe. […] In a later study, the base analogue DMA^thaU was detected as a free nucleoside at the single-molecule level for the first time via multiphoton excitation with a brightness of […] per molecule following three-photon excitation (see Phys. Chem. Chem. Phys. 2018, 20 (45), 28487; and J. Phys. Chem. Lett. 2019, 10 (17), 5008). […] The 2P brightness was measured using fluorescence correlation spectroscopy (FCS) and found to match that of DMA^thaU at 7 kHz per molecule (FIG. 3B).
Sample preparation for 2P method. All experiments were done with a solution of approximately 100 nM of ABN in TRIS buffer (20 mM TRIS base) at a pH of 7.5. The molecules were initially dissolved in DMSO (at a concentration of 100 μM) and subsequently diluted in buffer. The TRIS buffer was prepared with ultrapure water (Direct Q3, Merck Millipore), TRIS-base (20 mM, Trizma base, BioUltra, Sigma-Aldrich) and 150 mM NaCl (analytical reagent grade, Fluka). The pH was adjusted to 7.5 with a HCl solution (Sigma-Aldrich). Prior to sample preparation, the buffer was filtered with activated charcoal (Darco, Fluca) and through a 0.2 μm filter (Milex, Merck).
Two photon microscope. The two-photon microscope is a homebuilt pulse-shaper assisted setup with a ultra-broadband Ti:Sa laser as light source, recently described (R. S. Fisher, et al., Phys. Chem. Chem. Phys., 20, 28487 (2018)). The excitation source was a broadband Ti: Sapphire laser with a repetition rate of 80 MHz and a spectrum centered on 800 nm with a FWHM of 135 nm (Vitara UBB, Coherent). […] Sample fluorescence was collected by the same objective and transmitted through a dichroic mirror (Chroma 675dcspxr) and a short pass filter (Semrock FF01-650/SP), split by a polarising beamsplitter cube and detected by two avalanche photodiodes (MPD PDM 50c and 1MPD $PD-050-CTB). The signal was subsequently detected by a hardware correlator (ALV-7002, ALV GmbH).

[4] = One-photon single-molecule total internal reflection fluorescence (smTIRF) microscopy
Description: The red-shifted absorption profile, high 2P brightness and predominance of the bright state made ABN a promising candidate for single-molecule detection via 1P excitation. […] Furthermore, these fluorescent puncta underwent single-step photobleaching under constant irradiation (FIG. 4B), consistent with the idea that ABN has suitable optical properties to be used as a single-molecule fluorescent nucleoside. By quantifying >2000 individual trajectories, we were able to determine the mean total detected photon value of 5300±1800 photons per molecule; furthermore, a mean of 1500±600 photons were detected per 100 ms integration from each molecule at a power density of 0.2 kW cm^−2.
Sample and slide preparation for IP method. ABN (10 mM, DMSO) was diluted into filtered (0.2 μm syringe filter, Whatman, 6780-1302) PBS (pH 7.4) to a working concentration of 100 nM. Borosilicate glass coverslips (VWR Int, 22×22 mm) were cleaned for 1 hour using an argon plasma (PDC-002, Harrick Plasma). Frame-Seal slide chambers (9×9 mm^2, Biorad, Hercules, CA) were affixed to the glass and the slides washed three times with filtered PBS (3×50 μL). The working solution of ABN (100 nM, 50 μL) was added to the slide and left for 3-minutes allowing for some of the ABN molecules to adsorb to the plasma-cleaned glass surface. […]
Single-molecule imaging. Single-molecule fluorescence imaging of ABN was performed on a bespoke total internal reflection fluorescence microscope using a 488 nm continuous wavelength diode laser (iBeamSMART, Toptica, 200.46 Wcm^−2). […] Fluorescence emission was collected by the same objective lens and separated from excitation light using a dichroic mirror (Di01-R405/488/561/635, Semrock) and passed through appropriate emission filters (BLP01-488R-25, FF01-520/44-25, Semrock). The fluorescence was then expanded (1.5×) and focused onto an electron-multiplying charge-coupled device (EMCCD, Evolve 512 Delta, Photometrics) with an electron multiplication gain of 250 ADU/photon operating in frame transfer mode. […]
Data analysis. A custom ImageJ macro was used to determine the total number of photons detected from single ABN emitters. The frames from single-molecule movies were summed and the pixel of peak intensity from each molecule was determined using the inbuilt ‘Find Maxima’ function (prominence threshold=20,000). The single emitters were selected from a 6×6 region surrounding the pixel of peak intensity and the total integrated intensity of the region was measured. […] The intensity per ABN emitter was converted from counts to photons detected by dividing the integrated signal above background by the total gain of the EMCCD (35.7 ADU/photon).

[5] = Melting temperatures of ABN-containing oligonucleotides (temperature-dependent circular dichroism); conditions: for Tm: ABN-containing hairpin or duplex
Description: Temperature-dependent circular dichroism measurements of all six duplexes are consistent with the B-DNA conformation with only minimal perturbation (Table 2). Except in the ODN1 hairpin, where ABN is expected to be mostly solvent exposed, the melting temperatures of the duplexes are typically somewhat depressed as compared with their natural counterparts. Duplex stability is lowest when ABN has 5′-G and 3′-C neighbors, an observation consistent with other tricyclic FBAs, especially those that are electron-rich. The observed melting temperatures provide little indication of whether ABN is a better T- or C-surrogate.

[6] = Steady-state photophysical measurements of ABN in single-stranded and duplex DNA oligonucleotides; conditions: 1×PBS buffer (pH 7.4), different concentrations
[7] = ABN in DNA oligonucleotide, 1×PBS buffer (pH 7.4)
[8] = Tm of ABN-containing duplex − Tm of corresponding duplex with canonical thymidine in place of ABN

Compound: CCN(CC)c1ccc2cc3cc([C@H]4C[C@@H](O)[C@@H](CO)O4)c(=O)nc-3[nH]c2c1 [ABN, 8-(diethylamino)-3-((2R,4R,5R)-4-hydroxy-5-(hydroxymethyl)tetrahydrofuran-2-yl)benzo[b][1,8]naphthyridin-2(10H)-one]
- λem, max [1]: 540 nm
- ε · Φem (brightness) ([1]; 1,4-dioxane): 19000 M⁻¹ cm⁻¹
- λem, max ([1]; 1,4-dioxane): 474 nm
- λex, max ([1]; 1,4-dioxane): 420 nm
- Φem ([1]; 1,4-dioxane, emission 474 nm): 0.64
- Φem ([1]; 1 × PBS pH 7.4): 0.39
- λex, max ([1]; 1 × PBS pH 7.4): 442 nm
- ε · Φem (brightness) ([1]; H2O): 7800 M⁻¹ cm⁻¹
- λem, max ([1]; H2O): 540 nm
- λex, max ([1]; H2O): 442 nm
- Φem ([1]; H2O, emission 540 nm): 0.39
- red shift of absorption relative to closest competitors on brightness (pA, coumarin nucleoside) ([1]; aqueous solution): more than 50 nm
- red shift of emission relative to closest competitors on brightness (pA, coumarin nucleoside) ([1]; aqueous solution): > 80 nm
- Φem ([2]; in matched duplex DNA oligonucleotides, base paired with A): 0.50-0.53
- bright/dark state by controlled dilution ([3]; FCS, controlled dilution): exclusively in a bright state
- 2P brightness (average count rate per molecule) ([3]; FCS, two-photon excitation, 100 nM in TRIS buffer, excitation power 11 mW): 7 kHz per molecule and 7±0.5 kHz per molecule
- fraction of compound in a bright state ([3]; single-molecule fluorescence measurements): > 95%
- mean total on-time ([4]; 0.2 kW cm^−2): 0.35 ± 0.18 s
- mean number of photons detected per frame per single molecule ([4]; 488 nm, 0.2 kW cm^−2, 100 ms integration): 1500±600 photons/100 ms
- mean total number of photons detected per single molecule ([4]; 488 nm, 0.2 kW cm^−2, log-normal fit, N=2402 molecules): 5300±1800 photons
- brightness following 1P excitation ([4]; one-photon excitation): 15 kHz per molecule

Compound: ODN1: hairpin GCT TAG CAG GXT AGT GCT AAG C (SEQ ID NO: 1), X = ABN in loop (GCT TAG CAG GXTAGT GCT AAG C; ABN abasic-like nucleoside in loop, as printed in the source, key not given here)
- Φem [2, 7]: 0.55
- λabs, max [2, 7]: 450 nm
- λem, max [2, 7]: 530 nm
- Tm [5]: 63.6 ± 0.6 °C
- ΔTm [5, 8]: +3.1 °C

Compound: ODN1:ODN2: duplex of ODN1 with ODN2 (HairpinA, SEQ ID NO: 4); ABN base paired with A (chain 1 GCTTAGCAGGNTAGTGCTAAGC; chain 2 GCTTAGCACTAACCTGCTAAGC; ABN nucleoside, chemistry not fully specified)
- Φem [2, 7]: 0.53
- λabs, max [2, 7]: 440 nm
- λem, max [2, 7]: 530 nm
- Tm [5]: 61.8 ± 0.4 °C
- ΔTm [5, 8]: −4.7 °C

Compound: ODN1:ODN3: duplex of ODN1 with ODN3 (HairpinG, SEQ ID NO: 5); ABN base paired with G (chain 1 GCTTAGCAGGNTAGTGCTAAGC; chain 2 GCTTAGCACTAGCCTGCTAAGC; ABN nucleoside, chemistry not fully specified)
- Φem [2, 7]: 0.40
- λabs, max [2, 7]: 468 nm
- λem, max [2, 7]: 523 nm
- Tm [5]: 61.3 ± 0.6 °C
- ΔTm ([5]; comparison with Tm of the corresponding natural duplex with a C:G base pair): +1.6^c ° C.

Compound: ODN4: 10-mer CGC AAX ATC G (SEQ ID NO: 2), X = ABN (ABN nucleoside, as printed in the source, key not given here)
- Φem [2, 7]: 0.49
- λabs, max [2, 7]: 452 nm
- λem, max [2, 7]: 540 nm

Compound: ODN7: 10-mer CGC AGX CTC G (SEQ ID NO: 3), X = ABN (ABN nucleoside, as printed in the source, key not given here)
- Φem [2, 7]: 0.62
- λem, max [2, 7]: 532 nm
- concentration dependence of absorption spectra [6]: concentration dependent
